Assay results published in article PMC6692352, “DF2726A, a new IL-8 signalling inhibitor, is able to counteract chemotherapy-induced neuropathic pain” (Scientific Reports, 2019).

Tests used:
[1] = system: paclitaxel-induced mechanical and cold allodynia; experiment: Paclitaxel-induced mechanical and cold allodynia; format: in vivo; details: 30 mg/kg os for 14 days, rats
Method: 5/8 inch needles; Chemil s.r.l., Padova, Italy) at 0.08, 0.5, 1, 3, 6, 12, 24, 36 and 48 h for i.v. dosing and at 0.25, 0.5, 1, 3, 6, 12, 24, 36 and 48 h for oral dosing. After each blood withdrawal, the catheters were washed with 0.15-0.2 mL of sterile physiological saline and filled with 0.03 mL of heparin saline solution (0.25 U.I/mL). The heparinized blood was immediately centrifuged (8000 RPM for 5 min at approximately 4°C) and the resultant plasma transferred into vials and stored at - 20°C until analysis. DF2726A concentrations were quantified by HLPC-MS/MS using a chromatographic method with a lower limit of quantitation of 1 ng·mL -1. Non-compartmental analysis (Gibaldi and Perrier, 1982) were used to calculate the pharmacokinetic parameters using a MKModel by Nick Holford software Version 4, (Biosoft, Ferguson, MO 63 135, USA).
DF2726A was administered at a dose of 30 mg/2ml/kg/os for 14 consecutive days starting 3 days before paclitaxel administration and continuing for 11 days after the first administration of […]
Induction of neuropathy by paclitaxel
Rats received 4 once daily intraperitoneal (i.p.) injections of paclitaxel (Tocris, Italy) (2 mg/kg/day i.p.; cumulative dose of 8 mg/kg i.p.) or vehicle (saline, 1ml/kg/day i.p.), administered on alternate days (days 0, 2, 4, and 6) as descr ibed 4. […]
Pac+Saline group. […] Data are expressed as […]

COX2 = COX2 protein western blotting in F11-derived neurons; format: cell-based; details: DF2726A 1 µM + oxaliplatin 20 µM, 24 h
Method: (§1) Following neuronal differentiation, neurons were treated for 24 h with DF2726A (1 μM final concentration), oxaliplatin (Sigma-Aldrich; 20 µM final concentration), or the combination of the two molecules.
(§2) Control and treated cells were collected and lysed in ice-cold RIPA buffer (PBS pH 7.4 containing 0.5% sodium deoxycolate, 1% Igepal, 0.1% SDS, 5 mM EDTA, 1% protease and phosphatase inhibitor cocktails; Sigma-Aldrich) as described in[22],[33]. Protein lysates (30 μg) were separated on 8–12% SDS-polyacrilamide gel and electroblotted onto polyvinyldifluoride membrane (PVDF; Sigma-Aldrich). Nonspecific binding sites were blocked by 5% non-fat dry milk (Bio-Rad Laboratories, Hercules, CA, USA) in Tris buffered saline (TBS: 20 mM Tris- HCl, pH 7.4, containing 150 mM NaCl) for 30 min at RT. […] The relative densities of immunoreactive bands were determined and normalized HRP-conjugated β-actin, using ImageJ software. […]

PI3K and p-Akt = PI3K and p-Akt western blotting in F11-derived neurons; format: cell-based; details: DF2726A 1 µM + oxaliplatin 20 µM, 24 h
Method: as §1, §2

Metabolic stability, dog = format: in vitro ADME; details: Test conc: 2.5 µM
From the text: (§3) Table 1 Physicochemical and in Vitro ADME Properties of DF2726A. | column: DF2726A

p-STAT3 = p-STAT3 western blotting in F11-derived neurons; format: cell-based; details: 24 h
Method: as §1, §2

CYP 3A4 = CYP 3A4 (Homo sapiens, UniProt P08684); experiment: CYP inhibition 3A4; format: in vitro ADME
Chain of CYP 3A4 (P08684 whole entry): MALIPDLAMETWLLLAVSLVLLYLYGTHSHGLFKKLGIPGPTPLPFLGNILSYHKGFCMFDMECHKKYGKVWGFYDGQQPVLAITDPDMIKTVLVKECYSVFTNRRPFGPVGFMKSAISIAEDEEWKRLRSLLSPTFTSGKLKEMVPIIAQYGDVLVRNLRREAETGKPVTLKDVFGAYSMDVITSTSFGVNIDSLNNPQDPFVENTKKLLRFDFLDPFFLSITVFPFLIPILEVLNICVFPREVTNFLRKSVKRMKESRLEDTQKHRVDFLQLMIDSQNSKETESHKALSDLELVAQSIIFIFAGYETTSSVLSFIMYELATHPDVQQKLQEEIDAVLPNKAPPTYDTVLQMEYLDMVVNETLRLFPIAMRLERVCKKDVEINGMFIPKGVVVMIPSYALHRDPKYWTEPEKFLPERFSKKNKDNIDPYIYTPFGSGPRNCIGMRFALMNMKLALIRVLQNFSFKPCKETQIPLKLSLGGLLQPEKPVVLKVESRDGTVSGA
From the text: as §3

With `CC(C)(C(=O)O)c1ccc(Nc2nc(C(F)(F)F)cs2)cc1` [DF2726A] the “Effect on paclitaxel-induced mechanical and cold allodynia” value [1] was “prevented”, the “COX2 expression levels, oxaliplatin-treated neurons” value (COX2) was “comparable to the control” and the “PI3K and p-Akt protein levels, oxaliplatin-treated neurons” value (PI3K and p-Akt) was “comparable to those of control cells”. The Metabolic stability dog (Metabolic stability, dog) was 7.2 µL/min/10^6 cells, the “p-STAT3 levels, oxaliplatin-treated neurons” value (p-STAT3; DF2726A 1 µM + oxaliplatin 20 µM) was “counteracted this effect” and the “p-STAT3 levels, paclitaxel-treated neurons” value (p-STAT3; DF2726A + paclitaxel 10 nM) was “counteracted this effect”. The IC50 (CYP 3A4) was > 30 µM.
